Data reported in article PMC6225232, “Design, Synthesis and Biological Evaluation of Ligustrazine-Flavonoid Derivatives as Potential Anti-Tumor Agents” (Molecules : A Journal of Synthetic Chemistry and Natural …, 2018).

Legend:
Format in all cases: cell-based, human
[1] = tested on: HepG-2; experiment: MTT cytotoxicity assay, HepG-2; conditions: Homo sapiens, HepG2, 72 h
Experimental: (§1) Five kinds of tumor cell lines and one normal endothelial cell were routinely cultured respectively in RPMI 1640 medium supplemented with 10% (V/V) FBS and 1% (V/V) penicillin-streptomycin, incubated at 37 °C in a 5% CO2 containing incubator. The five tumor cell lines were plated onto 96-well sterile plates in 100 μL/well of medium at a density of 3.5 × 10^3 cells per well and incubated at 37 °C with 5% CO2 for 24 h. Then luteolin, baicalein, apigenin, chrysin, quercetin, fisetin, genistein, daidzein, naringenin, DDP and compounds 10–25 were added at various concentrations (5, 10, 20, 40, 50 μΜ). Each plate contained control group, blank group, drug group and positive group (DDP). After 72 h, 20 μL MTT in phosphate buffered saline (PBS, 5 mg/mL) was added to each well and the plates were incubated at 37 °C for 4 h, then removing the liquid and adding dimethyl sulfoxide (DMSO, 100 μL) to dissolve the MTT formazan. The optical density (OD) for each well was measured on a BIORAD 550 spectrophotometer plate reader (Bio-Gene Technology Ltd., Guangzhou, China) at a wavelength of 490 nm. All tests were carried out three times in parallel.

[2] = tested on: HT-29; experiment: MTT cytotoxicity assay, HT-29; conditions: Homo sapiens, HT-29, 72 h
Experimental: as §1

[3] = tested on: HeLa; experiment: MTT cytotoxicity assay, HeLa; conditions: Homo sapiens, 72 h
Experimental: as §1

[4] = tested on: Bel-7402; experiment: MTT cytotoxicity assay, Bel-7402
Experimental: as §1

[5] = tested on: HUVEC-12; experiment: MTT cytotoxicity assay using HUVEC-12 cell; conditions: for Proliferation Rate (%) 2.5 μM / Proliferation Rate (%) 5 μM / Proliferation Rate (%) 10 μM / Proliferation Rate (%) 20 μM / Proliferation Rate (%) 40 μM: HUVEC-12, 24 h, negative = inhibition; for IC50: Homo sapiens, MTT, 24 h
Experimental: Five kinds of tumor cell lines and one normal endothelial cell were routinely cultured respectively in RPMI 1640 medium supplemented with 10% (V/V) FBS and 1% (V/V) penicillin-streptomycin, incubated at 37 °C in a 5% CO2 containing incubator.
The HUVEC-12 cell were seeded in 96-well plates (6.0 × 10^3 cells/ well), and incubated at 37 °C in a 5% CO2 containing incubator. After 24 h, the medium was replaced with fresh medium containing the compounds to be tested. Compounds 14, 19 and DDP were added in final concentrations ranging from 2.5 to 40 μM. Each plate contained control group, blank group and drug group. After 24 h, 20 μL MTT was added to each well and the plates were incubated at 37 °C for 4 h, then removing the liquid and adding dimethyl sulfoxide (DMSO) (100 μL) to dissolve the MTT formazan. The optical density (OD) for each well was measured on a BIORAD 550 spectrophotometer plate reader at a wavelength of 490 nm. All tests were carried out three times in parallel. The proliferation inhibition rates of tumor cells were calculated by {1 − [OD490 (Drug group) − OD490 (Blank group)]/[OD490 (Control group) − OD490 (Blank group)]} × 100%.

[6] = tested on: MCF-7; experiment: MTT cytotoxicity assay, MCF-7; conditions: Homo sapiens, MCF7, 72 h
Experimental: as §1

[7] = tested on: Bel-7402 cells; experiment: Morphological analysis using Giemsa and DAPI staining; conditions: 72 h
Experimental: The Bel-7402 cells were plated onto 12-well sterile plates at a density of 2.4 × 10^4 cells per well and incubated at 37 °C in a 5% CO2 containing incubator. Then the cells were incubated in the presence of compound 14 at various concentrations (0, 10, 20, 40 μΜ) for 72 h. Then cells were washed with PBS twice, fixed with cold ethanol and 4% paraformaldehyde (pH = 7.4) for 10 min respectively and washed with PBS again. Then fixed cells were stained with 6% Giemsa solution or DAPI at the concentration of 1 mg/mL for 5 min in the dark. Finally, the cells washed with water and dried. The cell morphological changes were observed by fluorescent microscopy and images were captured by digital camera.

[8] = tested on: Bel-7402 cells; experiment: Apoptosis analysis by flow cytometry, Annexin V-FITC/PI staining; conditions: 72 h, control 5.4%
Experimental: The Bel-7402 cells were plated onto 6-well sterile plates (4.8 × 10^4 cells/well) and placed at 37 °C with 5% CO2 for 24 h. Then compound 14 at various concentrations (0, 5, 10, 20 μΜ) was added. After 72 h, all cells were collected respectively with the right amount of trypsin (without EDTA) digestion. Then the cells were washed with cold PBS twice and centrifuged at 1000 rpm for 5 min. The harvested cells were resuspended in 200 μL binding buffer, which contained 10 μL Annexin V-FITC and PI. After avoided light reaction for 15 min, the cells were analyzed with a flow cytometer.

Compound | IC50 [1] | IC50 [2] | IC50 [3] | IC50 ([4]; Homo sapiens, Bel-7402, 72 h) | Proliferation Rate (%) 2.5 μM [5] | Proliferation Rate (%) 5 μM [5] | Proliferation Rate (%) 10 μM [5] | Proliferation Rate (%) 20 μM [5] | Proliferation Rate (%) 40 μM [5] | IC50 [5] | IC50 [6] | cell morphology, Giemsa staining ([7]; Bel-7402, 40 μM) | cell morphology, DAPI staining ([7]; Bel-7402, 10, 20, 40 μM) | IC50 ([4]; 72 h) | apoptosis ratio (early and late) ([8]; Bel-7402, 10 μM) | apoptosis ratio (early and late) ([8]; Bel-7402, 20 μM)
Cc1nc(C)c(COc2ccc(-c3coc4cc(O)ccc4c3=O)cc2)nc1C [Compound 19, 7-Hydroxy-3-(4-((3,5,6-trimethylpyrazin-2-yl)methoxy)phenyl)-4H-chromen-4-one] | 14.5 ± 0.48 µM | 11.7 ± 1.29 µM | 14.3 ± 1.17 µM | 28.9 ± 0.49 µM | −8.75 ± 0.38% | −19.35 ± 0.35% | −19.49 ± 2.17% | −24.22 ± 3.19% | −25.07 ± 1.02% | > 40 µM | 10.4 ± 1.23 µM | – | – | – | – | –
O=c1cc(-c2ccc(O)cc2)oc2cc(O)cc(O)c12 [Apigenin] | 16.1 ± 1.52 µM | 23.4 ± 1.89 µM | 30.6 ± 0.71 µM | 28.2 ± 0.38 µM | – | – | – | – | – | – | 29.7 ± 1.43 µM | – | – | – | – | –
O=c1c(O)c(-c2ccc(O)c(O)c2)oc2cc(O)ccc12 [Fisetin] | 17.4 ± 1.04 µM | 23.9 ± 0.81 µM | 20.9 ± 1.65 µM | 25.5 ± 1.54 µM | – | – | – | – | – | – | 38.1 ± 1.83 µM | – | – | – | – | –
Cc1nc(C)c(COc2ccc(/C=C/C(=O)c3c(O)cc(OCc4nc(C)c(C)nc4C)cc3OCc3nc(C)c(C)nc3C)cc2)nc1C [Compound 14, (E)-1-(2-Hydroxy-4,6-bis((3,5,6-trimethylpyrazin-2-yl)methoxy)phenyl)-3-(4-((3,5,6-trimethylpyrazin-2-yl)methoxy)phenyl)prop-2-en-1-one] | 17.3 ± 0.47 µM | 31.9 ± 1.96 µM | 25.1 ± 1.8 µM | 10.5 ± 1.12 µM | 1.62 ± 0.75% | 1.99 ± 0.23% | 14.84 ± 1.41% | 16.71 ± 0.29% | −2.32 ± 1.37% | > 40 µM | 29.8 ± 2.18 µM | mainly cell fragments rather than complete cells | morphological features of apoptosis | 10.7 ± 1.12 µM | 45.5% | 54.6%
O=c1c(O)c(-c2ccc(O)c(O)c2)oc2cc(O)cc(O)c12 [Quercetin] | 13.6 ± 0.73 µM | 27 ± 0.47 µM | 20.8 ± 4.04 µM | 30.4 ± 2.51 µM | – | – | – | – | – | – | > 40 µM | – | – | – | – | –
Cc1nc(C)c(COc2ccc(-c3coc4cc(OCc5nc(C)c(C)nc5C)cc(O)c4c3=O)cc2)nc1C [Compound 17, 5-Hydroxy-7-((3,5,6-trimethylpyrazin-2-yl)methoxy)-3-(4-((3,5,6-trimethylpyrazin-2-yl)methoxy)-phenyl)-4H-chromen-4-one] | > 40 µM | 10.7 ± 1.35 µM | > 40 µM | > 40 µM | – | – | – | – | – | – | > 40 µM | – | – | – | – | –
Cc1nc(C)c(COc2cc3oc(-c4ccccc4)cc(=O)c3c(OCc3nc(C)c(C)nc3C)c2OCc2nc(C)c(C)nc2C)nc1C [Compound 13, 2-Phenyl-5,6,7-tris((3,5,6-trimethylpyrazin-2-yl)methoxy)-4H-chromen-4-one] | 13.4 ± 2.5 µM | 22.4 ± 0.35 µM | 17.3 ± 1.07 µM | 26.13 ± 0.11 µM | – | – | – | – | – | – | > 40 µM | – | – | – | – | –
O=c1c(-c2ccc(O)cc2)coc2cc(O)ccc12 [Daidzein] | 21.8 ± 1.53 µM | > 40 µM | > 40 µM | > 40 µM | – | – | – | – | – | – | 36.8 ± 1.48 µM | – | – | – | – | –
